Laboratory results as given in article PMC4512978, “Synthesis and evaluation in rats of homologous series of [^18F]-labeled dopamine D2/3 receptor agonists based on the 2-aminomethylchroman scaffold as potential PET tracers” (EJNMMI Research, 2015).

Tested on: D2/3R
Experiment: Kinetic analysis of PET data (1TCM, 2TCM, Logan, SRTM);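 on 2TCM BPND change relative to control: Raclopride 1 mg/kg intravenous pretreatment versus saline controls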;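 on SRTM BPND change relative to control: Raclopride 1 mg/kg intravenous pretreatment versus saline controls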
Format: in vivo, Sprague-Dawley rats
Set-up: key to SRTM BPND / 1TCM BPND / 2TCM BPND (VT-based): BPND = VT(target)/VT(cerebellum) − 1 (or SRTM, cerebellum reference); SRTM BPND change relative to control / 1TCM BPND change relative to control / 2TCM BPND change relative to control / Logan BPND change relative to control: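 Raclopride 1 mg/kg intravenous pretreatment versus saline controls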; 1TCM VT / 2TCM VT: unit not given here
Description: Kinetic analysis is described using the nomenclature proposed by Innis et al.. ROI TACs of [^18F]FEt-AMC13 were analyzed with one-tissue and two-tissue compartmental models of reversible binding (1TCM and 2TCM, respectively) to obtain individual rate constants. From these, the regional distribution volumes (VT) were calculated and compared to those obtained with Logan graphical analysis. Binding potentials (BPND) were calculated from the distribution ratios as VT (target) / VT (cerebellum) – 1, or estimated with the simplified reference tissue model (SRTM) using the cerebellum as reference region.
Metabolite-corrected plasma-derived arterial input function and whole blood time-activity curve were used for Logan, 1TCM, and 2TCM analyses. Fractional cerebral blood volume was set to 3.6 % [27]. For one rat in the raclopride-treated group, no input curves could be obtained; therefore, its PET data were only analyzed with SRTM.
Degree of D2/3R-specific binding of the tracers was characterized by BPND (as given above) or the specific binding ratio (SBR) given as target region activity/cerebellar activity - 1. Both were calculated under control conditions and in response to the raclopride challenge.

[1] = Brainstem, raclopride, listed as [18F]FEt-AMC13

Oc1ccc2c(c1)O[C@@H](CNCc1ccc(OCC[18F])cc1)CC2 [[^18F]FEt-AMC13]
fall of striatal BPND (1 mg/kg raclopride, depending on the kinetic model): 18–27% | 1TCM BPND (Brainstem, control): 0.21±0.03 | 1TCM VT (Brainstem, control): 5.67±0.33 | 2TCM BPND (VT-based) (Brainstem, control): 0.22 ± 0.02 | 2TCM VT (Brainstem, control): 6.17±0.52 | Logan BPND (Brainstem, control): 0.21±0.02 | Logan VT (Brainstem, control): 6.12±0.57 | SRTM BPND (Brainstem, control): 0.18 ± 0.04 | 1TCM K1 (Brainstem, control rat A): 0.63 ± 0.04 mL/g/min | 1TCM k2 (Brainstem, control rat A): 0.10 ± 0.02 min⁻¹ | 2TCM K1 (Brainstem, control rat A): 2.03 ± 0.40 mL/g/min | 2TCM k2 (Brainstem, control rat A): 3.53 ± 1.32 min⁻¹ | 2TCM k3 (Brainstem, control rat A): 1.05 ± 0.19 min⁻¹ | 2TCM k4 (Brainstem, control rat A): 0.10 ± 0.01 min⁻¹ | 1TCM K1 (Brainstem, control rat B): 0.60 ± 0.03 mL/g/min | 1TCM k2 (Brainstem, control rat B): 0.11 ± 0.01 min⁻¹ | 2TCM K1 (Brainstem, control rat B): 0.96 ± 0.11 mL/g/min | 2TCM k2 (Brainstem, control rat B): 0.89 ± 0.30 min⁻¹ | 2TCM k3 (Brainstem, control rat B): 0.72 ± 0.83 min⁻¹ | 2TCM k4 (Brainstem, control rat B): 0.15 ± 1.20 min⁻¹ | 1TCM K1 (Brainstem, control rat C): 0.68 ± 0.02 mL/g/min | 1TCM k2 (Brainstem, control rat C): 0.12 ± 0.01 min⁻¹ | 2TCM K1 (Brainstem, control rat C): 1.11 ± 0.22 mL/g/min | 2TCM k2 (Brainstem, control rat C): 1.19 ± 0.59 min⁻¹ | 2TCM k3 (Brainstem, control rat C): 1.10 ± 1.86 min⁻¹ | 2TCM k4 (Brainstem, control rat C): 0.21 ± 2.66 min⁻¹ | 1TCM K1 (Brainstem, control rat D): 0.71 ± 0.03 mL/g/min | 1TCM k2 (Brainstem, control rat D): 0.13 ± 0.01 min⁻¹ | 2TCM K1 (Brainstem, control rat D): 4.75 ± 5.87 mL/g/min | 2TCM k2 (Brainstem, control rat D): 19.6 ± 19.9 min⁻¹ | 2TCM k3 (Brainstem, control rat D): 2.79 ± 15.04 min⁻¹ | 2TCM k4 (Brainstem, control rat D): 0.12 ± 37.81 min⁻¹ | 1TCM BPND (Brainstem, raclopride): 0.13±0.03 | 1TCM BPND change relative to control (Brainstem, raclopride): -41% | 1TCM VT (Brainstem, raclopride): 4.99±0.56 | 2TCM BPND (VT-based) (Brainstem, raclopride): 0.10 ± 0.02 | 2TCM BPND change relative to control (Brainstem, raclopride): −53% | 2TCM VT (Brainstem, raclopride): 5.46±0.36 | Logan BPND (Brainstem, raclopride): 0.11±0.02 | Logan BPND change relative to control (Brainstem, raclopride): -47% | Logan VT (Brainstem, raclopride): 5.53±0.26 | SRTM BPND (Brainstem, raclopride): 0.07 ± 0.03 | SRTM BPND change relative to control (Brainstem, raclopride): −60% | 2TCM BPND (VT-based) [1]: 0.10±0.02 | 2TCM BPND change relative to control [1]: -53% | SRTM BPND [1]: 0.07±0.03 | SRTM BPND change relative to control [1]: –60% | 1TCM VT (Cerebellum, control): 4.68±0.34 | 2TCM VT (Cerebellum, control): 5.08±0.49 | Logan VT (Cerebellum, control): 5.06±0.53 | 1TCM K1 (Cerebellum, control rat A): 0.57 ± 0.04 mL/g/min | 1TCM k2 (Cerebellum, control rat A): 0.11 ± 0.02 min⁻¹ | 2TCM K1 (Cerebellum, control rat A): 2.10 ± 0.32 mL/g/min | 2TCM k2 (Cerebellum, control rat A): 4.90 ± 1.30 min⁻¹ | 2TCM k3 (Cerebellum, control rat A): 1.23 ± 0.13 min⁻¹ | 2TCM k4 (Cerebellum, control rat A): 0.10 ± 0.005 min⁻¹ | 1TCM K1 (Cerebellum, control rat B): 0.61 ± 0.02 mL/g/min | 1TCM k2 (Cerebellum, control rat B): 0.13 ± 0.01 min⁻¹ | 2TCM K1 (Cerebellum, control rat B): 0.81 ± 0.05 mL/g/min | 2TCM k2 (Cerebellum, control rat B): 0.53 ± 0.24 min⁻¹ | 2TCM k3 (Cerebellum, control rat B): 0.46 ± 0.55 min⁻¹ | 2TCM k4 (Cerebellum, control rat B): 0.20 ± 0.71 min⁻¹ | 1TCM K1 (Cerebellum, control rat C): 0.62 ± 0.01 mL/g/min | 1TCM k2 (Cerebellum, control rat C): 0.13 ± 0.01 min⁻¹ | 2TCM K1 (Cerebellum, control rat C): 0.86 ± 0.21 mL/g/min | 2TCM k2 (Cerebellum, control rat C): 1.13 ± 1.45 min⁻¹ | 2TCM k3 (Cerebellum, control rat C): 1.84 ± 1.78 min⁻¹ | 2TCM k4 (Cerebellum, control rat C): 0.34 ± 0.12 min⁻¹ | 1TCM K1 (Cerebellum, control rat D): 0.68 ± 0.03 mL/g/min | 1TCM k2 (Cerebellum, control rat D): 0.16 ± 0.02 min⁻¹ | 2TCM K1 (Cerebellum, control rat D): 48.7 ± 819.7 mL/g/min | 2TCM k2 (Cerebellum, control rat D): 298 ± 5152 min⁻¹ | 2TCM k3 (Cerebellum, control rat D): 3.55 ± 1.05 min⁻¹ | 2TCM k4 (Cerebellum, control rat D): 0.13 ± 0.03 min⁻¹ | 1TCM VT (Cerebellum, raclopride): 4.43±0.40 | 2TCM VT (Cerebellum, raclopride): 4.96±0.44 | Logan VT (Cerebellum, raclopride): 4.99±0.30 | 1TCM BPND (Cortex, control): 0.18±0.05 | 1TCM VT (Cortex, control): 5.53±0.38 | 2TCM BPND (VT-based) (Cortex, control): 0.13 ± 0.04 | 2TCM VT (Cortex, control): 5.75±0.45 | Logan BPND (Cortex, control): 0.13±0.03 | Logan VT (Cortex, control): 5.69±0.49 | SRTM BPND (Cortex, control): 0.11 ± 0.03 | 1TCM K1 (Cortex, control rat A): 0.37 ± 0.02 mL/g/min | 1TCM k2 (Cortex, control rat A): 0.06 ± 0.01 min⁻¹ | 2TCM K1 (Cortex, control rat A): 1.68 ± 0.46 mL/g/min | 2TCM k2 (Cortex, control rat A): 7.83 ± 1.43 min⁻¹ | 2TCM k3 (Cortex, control rat A): 1.84 ± 0.62 min⁻¹ | 2TCM k4 (Cortex, control rat A): 0.06 ± 4.47 min⁻¹ | 1TCM K1 (Cortex, control rat B): 0.47 ± 0.02 mL/g/min | 1TCM k2 (Cortex, control rat B): 0.09 ± 0.01 min⁻¹ | 2TCM K1 (Cortex, control rat B): 0.66 ± 0.04 mL/g/min | 2TCM k2 (Cortex, control rat B): 0.64 ± 0.21 min⁻¹ | 2TCM k3 (Cortex, control rat B): 0.72 ± 0.24 min⁻¹ | 2TCM k4 (Cortex, control rat B): 0.16 ± 0.02 min⁻¹ | 1TCM K1 (Cortex, control rat C): 0.41 ± 0.01 mL/g/min | 1TCM k2 (Cortex, control rat C): 0.07 ± 0.002 min⁻¹ | 2TCM K1 (Cortex, control rat C): 0.43 ± 0.12 mL/g/min
